Reference: PubChem BioAssay (NCI)
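Exposure lasted 48 hours, with cells grown in 96-well plates and compounds tested at five concentrations. GI50 is the concentration that inhibits growth by half. Definition used: TGI = concentration required for complete inhibition of growth.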

Columns and labels:
Experiment in all cases: NCI-60 cell line screen, 48 h
[1] = tested on: NCI/ADR-RES ovarian
[2] = tested on: HS 578T breast
[3] = tested on: HT29 colon
[4] = tested on: SK-MEL-28 melanoma
[5] = tested on: MDA-MB-435
[6] = tested on: K-562 leukemia
[7] = tested on: PC-3 prostate
[8] = tested on: SK-MEL-2 melanoma
[9] = tested on: A498 renal
[10] = tested on: EKVX NSCLC
[11] = tested on: HOP-92 NSCLC
[12] = tested on: HL-60(TB) leukemia
[13] = tested on: ACHN renal
[14] = tested on: A549 NSCLC
[15] = tested on: RPMI-8226 leukemia
[16] = tested on: SW-620 colon
[17] = tested on: DU-145 prostate
[18] = tested on: OVCAR-4 ovarian
[19] = tested on: NCI-H460 lung
[20] = tested on: SR leukemia
[21] = tested on: SF-268 CNS
[22] = tested on: HCT-116 colon
[23] = tested on: UO-31 renal
[24] = tested on: HCT-15 colon
[25] = tested on: SNB-75 CNS
[26] = tested on: MALME-3M melanoma
[27] = tested on: SF-539 CNS
[28] = tested on: UACC-62 melanoma
[29] = tested on: MOLT-4 leukemia
[30] = tested on: SF-295 CNS
[31] = tested on: HOP-62 NSCLC
[32] = tested on: MDA-MB-231 breast
[33] = tested on: MCF7 breast
[34] = tested on: M14 melanoma
[35] = tested on: IGROV1 ovarian
[36] = tested on: SK-MEL-5 melanoma
[37] = tested on: NCI-H226 lung
[38] = tested on: TK-10 renal
[39] = tested on: CAKI-1 renal
[40] = tested on: SNB-19 CNS
[41] = tested on: 786-0 renal
[42] = tested on: KM12 colon
[43] = tested on: LOX IMVI melanoma
[44] = tested on: OVCAR-5 ovarian
[45] = tested on: RXF 393 renal
[46] = tested on: T-47D breast
[47] = tested on: U251 CNS
[48] = tested on: NCI-H23 lung
[49] = tested on: HCC-2998 colon
[50] = tested on: COLO 205 colon
[51] = tested on: SK-OV-3 ovarian
[52] = tested on: NCI-H522 lung
[53] = tested on: OVCAR-3 ovarian

CN(C)CCOc1ccc(/C(=C(/CCCCCCCCCC[P+](c2ccccc2)(c2ccccc2)c2ccccc2)c2ccccc2)c2ccccc2)cc1
GI50 [1]: 1320 nM
TGI [1]: 3.78 µM
GI50 [2]: 318 nM
TGI [2]: 1790 nM
GI50 [3]: 127 nM
TGI [3]: 1400 nM
GI50 [4]: 364 nM
TGI [4]: 1790 nM
GI50 [5]: 223 nM
TGI [5]: 899 nM
GI50 [6]: 38.9 nM
TGI [6]: > 100 µM
GI50 [7]: 30.4 nM
TGI [7]: 184 nM
GI50 [8]: 280 nM
TGI [8]: 864 nM
GI50 [9]: 224 nM
TGI [9]: 774 nM
GI50 [10]: 274 nM
TGI [10]: 1400 nM
GI50 [11]: 29.7 nM
TGI [11]: 208 nM
GI50 [12]: 57.5 nM
TGI [12]: 319 nM
GI50 [13]: 382 nM
TGI [13]: 1470 nM
GI50 [14]: 77.2 nM
TGI [14]: 1660 nM
GI50 [15]: 27.3 nM
TGI [15]: 172 nM
GI50 [16]: 280 nM
TGI [16]: 1320 nM
GI50 [17]: 258 nM
TGI [17]: 1350 nM

Cc1ccc(S(=O)(=O)NC(=O)NCc2ccc(S(N)(=O)=O)cc2)cc1
TGI [18]: > 100 µM
TGI [1]: > 100 µM
TGI [19]: > 100 µM
TGI [2]: > 100000 nM
TGI [3]: > 100000 nM
TGI [4]: > 100000 nM
TGI [20]: > 100 µM
TGI [5]: > 100000 nM
TGI [21]: > 100 µM
TGI [22]: > 100 µM
TGI [6]: > 100 µM
TGI [23]: > 100 µM
TGI [24]: > 100 µM
TGI [25]: > 100 µM
TGI [26]: > 100 µM
TGI [7]: > 100000 nM
TGI [8]: > 100000 nM
TGI [27]: > 100 µM
TGI [28]: > 100 µM
TGI [29]: > 100 µM
TGI [30]: > 100 µM
TGI [31]: > 100 µM
TGI [32]: > 100 µM
TGI [9]: > 100000 nM
TGI [33]: > 100 µM
TGI [34]: > 100 µM
TGI [10]: > 100000 nM
TGI [35]: > 100 µM
TGI [11]: > 100000 nM
TGI [12]: > 100000 nM
TGI [36]: > 100 µM
TGI [37]: > 100 µM
TGI [38]: > 100 µM
TGI [39]: > 100 µM
TGI [40]: > 100 µM
TGI [41]: > 100 µM
TGI [13]: > 100000 nM
TGI [14]: > 100000 nM
TGI [42]: > 100 µM
TGI [15]: > 100000 nM
TGI [43]: > 100 µM
TGI [44]: > 100 µM
TGI [45]: > 100 µM
TGI [46]: > 100 µM
TGI [47]: > 100 µM
TGI [16]: > 100000 nM
TGI [48]: > 100 µM
TGI [49]: > 100 µM
TGI [50]: > 100 µM
TGI [17]: > 100000 nM
TGI [51]: > 100 µM
TGI [52]: > 100 µM
TGI [53]: > 100 µM
